Laboratory results from patent EP4782448A1, “SUBSTITUTED PYRIDOTRIAZOLE COMPOUND, AND PREPARATION METHOD THEREFOR AND USE THEREOF” (Origiant Pharmaceutical Co., Ltd., priority 2023, dated 2025).
Like-named read-outs stand apart in the source and are kept apart here.

How the values were obtained:
[1] = test system: HT-29 cells; experiment: In vitro assay for protection of HT-29 cells from necroptosis (TNFα/Smac mimetic/Z-VAD-FMK induction, CCK8 readout); type: cell-based; details: read-out: HT-29 (EC50)
[2] = target: T1, RIPK1 Kinase (Homo sapiens, UniProt Q13546); experiment: biochemical
T1 construct: purchased Eurofins (Kinase Profiler service)
T1 sequence (Q13546 1-671): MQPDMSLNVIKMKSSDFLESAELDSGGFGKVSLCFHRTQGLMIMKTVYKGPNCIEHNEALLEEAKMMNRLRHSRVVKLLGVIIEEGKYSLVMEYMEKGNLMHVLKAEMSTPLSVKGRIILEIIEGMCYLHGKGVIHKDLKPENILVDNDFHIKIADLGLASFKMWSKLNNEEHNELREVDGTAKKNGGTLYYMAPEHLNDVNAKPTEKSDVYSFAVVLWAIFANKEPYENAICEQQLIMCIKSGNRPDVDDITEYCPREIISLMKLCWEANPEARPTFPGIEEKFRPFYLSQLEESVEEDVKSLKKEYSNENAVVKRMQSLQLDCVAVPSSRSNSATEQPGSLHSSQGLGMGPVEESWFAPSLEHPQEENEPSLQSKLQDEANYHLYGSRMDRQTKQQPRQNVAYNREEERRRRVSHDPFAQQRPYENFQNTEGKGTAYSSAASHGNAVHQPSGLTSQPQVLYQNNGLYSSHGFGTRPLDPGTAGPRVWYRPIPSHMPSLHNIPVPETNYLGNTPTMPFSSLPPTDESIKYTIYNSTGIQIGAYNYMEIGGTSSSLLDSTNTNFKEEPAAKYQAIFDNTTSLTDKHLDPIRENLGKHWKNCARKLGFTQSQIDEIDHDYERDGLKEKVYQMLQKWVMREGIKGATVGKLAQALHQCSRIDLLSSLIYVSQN
Protocol: This assay was completed using the Kinase Profiler service provided by Eurofins. The experimental method was as follows: The small molecule compound to be tested (0.001-10 µM) and the protein kinase to be tested were incubated with a buffer containing a substrate, 10 mM magnesium acetate, and [γ-^33P-ATP]. The reaction was initiated by adding a Mg\ATPmix. After incubation at room temperature for a period of time, a 3% phosphate solution was added to the buffer to terminate the reaction. Subsequently, 10 µL of the reaction mixture was quantitatively pipetted and dropped onto P30 filter paper. The paper was washed three times with 75 mM phosphate solution and once with methanol. After drying, scintillation fluid was added for scinticounting. The inhibitory activity of the compound was expressed as the half-maximal inhibitory concentration (IC50). The IC50 values were derived by fitting the inhibition rates corresponding to the respective concentration gradients.

[3] = target: MLK2/3 kinase; experiment: In vitro MLK2/3 kinase assay (ADP-Glo method, ICE Bioscience); type: biochemical
Protocol: The in vitro MLK2/3 kinase assay utilized the ADP-Glo method provided by ICE Bioscience INC. A drug screening system based on MLK2/3 kinase was employed to evaluate the inhibiting ability of small molecule compounds against kinase activity. The experimental method is as follows: ADP-Glo Method • 1. 2 × ATP/substrate solution and 2 × kinase solution were prepared using kinase reaction buffer. • 2. 40 nL of the compound diluent was transferred into a 384-well plate using an Echo 655. After centrifugation, 2 µL of 2 × kinase solution was added to the 384-well plate, centrifuged at 1000 rpm for 1 min, and incubated at 25°C for 10 min; • 3.2 µL of 2 × substrate and ATP solution was added into the 384-well plate, centrifuged at 1000 rpm for 1 min, and incubated at 25°C for 60 min. • 4. 4 µL of ADP-Glo was transferred to a 384-well plate, centrifuged at 1000 rpm for 1 min, and incubated at 25°C for 40 min. • 5. 8 µL of test solution was transferred to a 384-well plate, centrifuged at 1000 rpm for 1 min, and incubated at 25°C for 40 min. • 6. The luminescence signal was read using a multifunctional microplate reader. • 7. Data Analysis
The IC50 (half inhibitory concentration) of a compound was obtained using the following non-linear fitting formula: Y = Bottom + (Top−Bottom)/(1+10^(∧)((LogIC50−X)*HillSlope)) [formula] • X: Compound concentration log value • Y: Compound inhibition rate (% inh)

[4] = TNFα/Smac mimetic/Z-VAD-FMK for 24 h, inhibition of necroptosis
[5] = compound 0.001-10 µM, read-out: RIPK1(IC50)

Structure (SMILES) | EC50 ([1]; Homo sapiens, HT-29, 24 h) | IC50 [2] | also measured
CC(=O)Nc1nc2cc(-c3ccc4c(c3)c(C(=O)N[C@H]3CCc5ccc(F)cc53)cn4C)ccn2n1 [Compound 124] | 1 to 10 nM | 10 to 100 nM | 
C[C@@H](c1ccc(F)cc1)N(C)C(=O)c1cn(C)c2ccc(-c3ccn4nc(NC(=O)C5CC5)nc4c3)cc12 [Compound 175] | < 1 nM | 10 to 100 nM | 
CC(c1ccc(F)cc1)n1cnc(-c2cn(C)c3ccc(-c4ccn5nc(NC(=O)C6CC6)nc5c4)cc23)n1 (centres unmarked) [Compound 210] |  |  | EC50 [1, 4]: 100 to 1000 nM; IC50 [2, 5]: 1000 to 10000 nM
C[C@H](NC(=O)c1cn(C)c2ccc(-c3ccn4nc(NC(=O)CN(C)CCO)nc4c3)cc12)c1ccc(F)cc1 [Compound 74] |  | 10 to 100 nM | IC50 [3]: 10 to 100 nM
CC(=O)Nc1nc2cc(-c3ccc4c(c3)c(C(=O)NC3CCc5cc(F)ccc53)cn4C)ccn2n1 (single isomer, unassigned) [Compound 127] | 1000 to 10000 nM | 100 to 1000 nM | 
C[C@H](NC(=O)c1cn(C)c2ccc(-c3ccn4nc(NC(=O)CN5CC(O)CC5=O)nc4c3)cc12)c1ccc(F)cc1 (single isomer, unassigned) [Compound 3] | 10 to 100 nM | 10 to 100 nM | 
C[C@H](NC(=O)c1cn(C)c2ccc(-c3ccn4nc(NC(=O)CN5C6CC7CC(C6)C(O)C5C7)nc4c3)cc12)c1ccc(F)cc1 (some centres unmarked) [Compound 59] |  |  | EC50 [1, 4]: < 1 nM; IC50 [2, 5]: 10 to 100 nM
C[C@H](NC(=O)c1cn(C)c2ccc(-c3ccn4nc(NC(=O)CN5CCOCC5)nc4c3)cc12)c1ccc(F)cc1 [Compound 75] |  | 1 to 10 nM | IC50 [3]: 10 to 100 nM
C[C@H](NC(=O)c1nn(C)c2ccc(-c3ccn4nc(NC(=O)CN5CCOCC5)nc4c3)cc12)c1ccc(F)cc1 [Compound 196] |  | 10 to 100 nM | 
Cn1cc(C(=O)Nc2nc3cc(-c4ccc5c(c4)c(C(=O)N[C@H]4CCc6ccc(F)cc64)cn5C)ccn3n2)cn1 [Compound 122] |  | 100 to 1000 nM | 
COCCNCC(=O)Nc1nc2cc(-c3ccc4c(c3)c(C(=O)N[C@@H](C)c3ccc(F)cc3)cn4C)ccn2n1 [Compound 68] |  | 10 to 100 nM | 
Cn1cc(C(=O)N2CC(F)CC2c2ccc(F)cc2)c2cc(-c3ccn4nc(NC(=O)C5CC5)nc4c3)ccc21 (centres unmarked) [Compound 156] |  | 10 to 100 nM | 
